From PubChem BioAssay (NCI)
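Interpolation was linear, between the two tested concentrations surrounding the appropriate level; five concentrations were tested over 48 hours in 96-well plates. TGI is the concentration that stops growth completely.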

How the values were obtained:
Assay in all cases: DTP human tumour cell line panel, 48 h
HOP-92 NSCLC = system: HOP-92 NSCLC
A498 renal = system: A498 renal
T-47D breast = system: T-47D breast
MDA-N = system: MDA-N
EKVX NSCLC = system: EKVX NSCLC
SK-MEL-2 melanoma = system: SK-MEL-2 melanoma
DU-145 prostate = system: DU-145 prostate
TK-10 renal = system: TK-10 renal
RXF 393 renal = system: RXF 393 renal
M14 melanoma = system: M14 melanoma

SMILES	TGI (HOP-92 NSCLC)	TGI (A498 renal)	TGI (T-47D breast)	TGI (MDA-N)	TGI (EKVX NSCLC)	TGI (SK-MEL-2 melanoma)	TGI (DU-145 prostate)	TGI (TK-10 renal)	TGI (RXF 393 renal)	TGI (M14 melanoma)
COC(=O)c1ccc(NCC2=CC(=O)c3ccccc3C2=O)cc1	12.3 µM	54.2 µM	32.5 µM	26.6 µM	66.5 µM	42.2 µM	31.3 µM	37.1 µM	> 61.7 µM	37.1 µM
CCOC(=O)C1(Cc2ccccc2)CCN(C(=O)c2ccccc2)C2C1C2(Cl)Cl (stereo not given)	55.6 µM	40 µM	62.4 µM	39.6 µM	71.7 µM	31.1 µM	> 100 µM	59.8 µM	36.5 µM	34.6 µM
CC1(C)OC2CN(C(=O)OCc3ccccc3)C(CO)C2O1 (stereo not given)	> 100 µM	> 100 µM	> 100 µM	> 100 µM	> 100 µM	> 100 µM	> 100 µM	> 100 µM	> 100 µM	> 100 µM
CCOC(=O)/C=C/[C@H](O[Si](c1ccccc1)(c1ccccc1)c1ccccc1)C(C)(C)C	> 31.6 µM	> 31.6 µM	> 31.6 µM	> 31.6 µM	> 31.6 µM	> 31.6 µM	> 31.6 µM	> 31.6 µM	> 31.6 µM	> 100 µM
O=[N+]([O-])/C(C(Cl)=C(Cl)Cl)=C(/Sc1ccccc1)N1CCOCC1	6.27 µM	28.1 µM	16 µM	14.6 µM	25.7 µM	18.1 µM	25.2 µM	18.3 µM	3.7 µM	9.24 µM
CNC=O	> 10000 µM	> 10000 µM	> 10000 µM	> 10000 µM	> 10000 µM	> 10000 µM	> 10000 µM	> 10000 µM	> 10000 µM	> 10000 µM
C/C=C/OC1C(C2COC(C)(C)O2)OC2OC(C)(C)OC21 (stereo not given)	> 100 µM	> 100 µM	> 100 µM	> 100 µM	> 100 µM	> 100 µM	> 100 µM	> 100 µM	> 100 µM	> 100 µM
